Earlier results as cited in patent US7261907B2, “Compositions for the treatment of neurological disorders” (priority 2001, dated 2007).
Counter-ions that a name gives are not always drawn.

Tested on: nicotine and cocaine addiction
Conditions: in vivo

Compound: CC(NC(C)(C)C)C(=O)c1cccc(Cl)c1 (stereo not shown) [bupropion hydrochloride]
- effectiveness in treating nicotine and cocaine addiction: moderately effective
